Results from article PMC9861858, “Stereoselective Synthesis and Antiproliferative Activities of Tetrafunctional Diterpene Steviol Derivatives” (International Journal of Molecular Sciences, 2023).
≈ marks a conversion by molar mass, not a printed value.

Tests used:
MCF-7 cells = assay: MTT antiproliferative assay, MCF-7; assay type: cell-based, human; settings: Homo sapiens, 72 h, values <20% considered negligible, read-out: Growth inhibition (%) ± SEM, MCF-7; for inhibition at 10 µM: MCF7, 10 μM; for inhibition at 30 µM: MCF7, 30 μM
Description: (§1) The in vitro antiproliferative activities of the synthesised aminotriols 5–18 against a panel of different human cancer cell lines of gynecological origin, including cervical (SiHA and HeLa), breast (MCF7 and MDA-MB-231), ovary (A2780) cancers and NIH/3T3 healthy fibroblasts, were assayed by the MTT method. Cisplatin, a clinically applied anticancer agent was used as a reference compound, and the results are summarised in Figure 3 and Table S1 in the Supplementary Materials.
(§2) The growth-inhibitory effects of the presented terpenes were determined by a standard MTT [3-(4,5-dimethylthiazol2-yl)-2,5-diphenyltetrazolium bromide] assay against […] human cancer cell lines (cervical cancer HeLa and SiHa cell lines, breast cancer MCF-7 and MDA-MB-231 and ovarian cancer A2780). Murine embryonal fibroblast cells (NIH/3T3) were used to determine selectivity. All cell lines were purchased from the European Collection of Cell Cultures (Salisbury, UK). The cells were cultivated in Eagle’s minimal essential medium supplemented with 10% fetal bovine serum, 1% non-essential amino acids, and 1% Antibiotic-Antimycotic complex (penicillin, streptomycin, amphotericin B) at 37 °C in a humidified atmosphere containing 5% CO2. All media and supplements were purchased from Lonza Group Ltd. (Basel, Switzerland). Cancer cells were seeded into 96-well plates (5000 cells/well) after an overnight incubation, and the test compounds were added at two different concentrations (10 μM and 30 μM) and incubated for another 72 h under cell-culturing conditions. Finally, 20 μL of a 5 mg/mL MTT solution was added to each well, and the contents were incubated for a further 4 h. The medium was removed, and the precipitated formazan crystals were dissolved in DMSO by shaking at 37 °C for 60 min. The absorbance was measured at 545 nm by using a microplate reader (SPECTROStar Nano, BMG Labtech, Offenburg, Germany). Clinically utilised anticancer agent cisplatin (Ebewe GmbH, Unterach, Austria) was included as a reference molecule. Calculations were performed using the GraphPad Prism 9 software (GraphPad Software Inc., San Diego, CA, USA).

[1] = test system: human cancer cell lines (HeLa, SiHa, A2780, MCF-7 and MDA-MB-231); assay: MTT antiproliferative assay, whole cancer cell panel; assay type: cell-based; settings: 10 and 30 μM
Description: as §1, §2

SiHa cells = assay: MTT antiproliferative assay, SiHa; assay type: cell-based, human; settings: Homo sapiens, SiHa, 72 h, values <20% considered negligible, read-out: Growth inhibition (%) ± SEM, SiHa
Description: as §1, §2

HeLa cells = assay: MTT antiproliferative assay, HeLa; assay type: cell-based, human; settings: for inhibition at 10 µM / inhibition at 30 µM: Homo sapiens, HeLa, 72 h, values <20% considered negligible, read-out: Growth inhibition (%) ± SEM, HeLa
Description: as §1, §2

MDA-MB-231 cells = assay: MTT antiproliferative assay, MDA-MB-231; assay type: cell-based, human; settings: Homo sapiens, 72 h, values <20% considered negligible, read-out: Growth inhibition (%) ± SEM, MDA-MB-231; for inhibition at 10 µM: MDA-MB-231, 10 μM; for inhibition at 30 µM: MDA-MB-231, 30 μM
Description: as §1, §2

A2780 cells = assay: MTT antiproliferative assay, A2780; assay type: cell-based, human; settings: Homo sapiens, 72 h, values <20% considered negligible, read-out: Growth inhibition (%) ± SEM, A2780; for inhibition at 10 µM: A2780, 10 μM; for inhibition at 30 µM: A2780, 30 μM
Description: as §1, §2

NIH/3T3 fibroblasts = assay: MTT assay on fibroblasts (selectivity); assay type: cell-based, murine; settings: Mus musculus, 72 h, values <20% considered negligible, read-out: Growth inhibition (%) ± SEM, NIH/3T3; for inhibition at 10 µM: NIH3T3, 10 μM; for inhibition at 30 µM: NIH3T3, 30 μM
Description: as §1, §2

[2] = Intestinal-specific parallel artificial membrane permeability assay (PAMPA-GI); assay type: in vitro ADME; settings: gradient pH system (pH donor 6.5 → pH acceptor 7.4) after 4 h, at 37 °C; mean ± S.E.M, n = 3
Description: (§3) Filtrates and calibration solutions (5–500 μ M) of the kinetic solubility study and starting donor and acceptor solutions of the PAMPA-GI study were investigated by HPLC-DAD-MS. LC-MS analysis was performed using a Waters 2795 HPLC with a Waters 2487 DAD detector coupled with a Micromass Quattro Ultima TMPt quadrupol mass spectrometer equipped with an ESI source. Measurements were performed on a Waters XSelect C18 (150 × 4.6 mm; 3.5 μm) column with a […] eluent flow rate and the temperature set at 40 °C. The composition of eluent A was MilliQ water with 0.1% formic acid, and that of eluent B was an acetonitrile and MilliQ water mixture (95:5, v/v), also with 0.1% formic acid. The following linear gradient program was used: 0–6 min, 10–100% B; this was held for 3 min, then from 9.01 min on, back to the starting composition of 10% B–90% A. The injection volume was 10 μL for each sample. Chromatographic profiles were registered at dual wavelength, 220 and 240 nm. The mass spectrometer was used in negative ion mode for samples 2, 3 and 4b, and in positive ion mode for other samples. The operating parameters of the MS were: Mass range of m/z 150–700. Nitrogen gas flow rate was 350 L/h, temperature of 350 °C and pressure of 6 bar. The quadrupol temperature was 120 °C, and the capillary voltage was 2.5 kV. Fragmentor’s voltage of 60 V.
(§4) Intestinal (GI) permeability was determined by using an intestinal-specific parallel artificial membrane permeability assay (PAMPA-GI [36]]). […] All solutions were filtered by MultiScreen HTS Vacuum Manifold (Merck Ltd., Budapest, Hungary) after the incubation period. The target concentration was 500 μM for every sample investigated. The intestinal-specific effective permeability of the samples was determined by PAMPA-GI. To prepare starting solutions for a 96-well donor plate, 15 μLs of the 10 mM DMSO stock solution of investigation compounds and 285 μL pH 6.5 phosphate buffer solution were mixed. These solutions were left in a shaking incubator (300 rpm) at 25 °C for 1 h. Meanwhile, a 96-well acceptor plate was filled with 300 μL of pH 7.4 PBS buffer solution containing 5% DMSO. The intestinal-specific artificial membrane was prepared the following way: the hydrophobic filter material of the donor plate was coated with a mixture of phosphatidylcholine/cholesterol = 2:1 (5 μL, 4 % (w/v) in dodecane). After that, all donor wells were filled with 150 μL of the starting donor solutions, and they were carefully placed on the acceptor plate and incubated at 37 °C for 4 h. After the end of the incubation period the donor and acceptor plates were separated carefully. A total of 150 μL of the donor, acceptor and the starting donor solutions were sampled and analysed with HPLC-DAD-MS. The effective permeability and membrane retention of drugs were calculated using the following equations: Pe=−2.303/A·(t−τss)·1/1+rv·lg[−rv+(1+rv/1−MR)·]CD(t)/CD(0) MR=1−CD(t)/CD(0)−VA·CA(t)/VD·CD(0) where Pe is the effective permeability coefficient (cm/s), A is the filter area (0.3 cm^2), VD and VA are the volumes in the donor (0.15 cm^3) and acceptor phase (0.3 cm^3), t is the incubation time (s), τSS is the time to reach steady-state (s), CD(t) is the concentration of the compound in the donor phase at time point t (mol/cm^3), CD(0) is the concentration of the compound in the donor phase at time point zero (mol/cm^3), rv is the aqueous compartment volume ratio (VD/VA), MR is the membrane retention factor.

[3] = Kinetic aqueous solubility; assay type: physicochemical; settings: phosphate buffered saline with 5% DMSO, aqueous with cosolvent or surfactant or cyclodextrin, kinetic from dmso stock; after 2 h, at 37 °C in PBS, pH 7.4, 5% DMSO; target concentration 500 μM; mean ± S.E.M, n = 3
Description: as §3, §4

With `C=C1[C@H](O)[C@@]23CCC4[C@@](C)(CCC[C@@]4(C)C(=O)OC)C2CC[C@]1(O)C3` (stereo partly drawn) [Compound 3, (4R,6aR,7R,9S,11bS)-Methyl 7,9-Dihydroxy-4,11b-dimethyl-8-methylenetetradecahydro-6a,9-methanocyclohepta[a]naphthalene-4-carboxylate] the inhibition at 10 µM (MCF-7 cells) was < 20%, the inhibition at 30 µM (MCF-7 cells) was 49.2 ± 2.19% and the “Antiproliferative activity on the cancer cell panel, in words” value (shortened to “Antiproliferative activity”) [1] was “any notable effect was not detectable”. For the same compound, the melting point was 253 to 255 °C, the inhibition at 10 µM (SiHa cells) was < 20% and the inhibition at 30 µM (SiHa cells) was 30.7 ± 2.71%. The inhibition at 10 µM (HeLa cells) was < 20%, the inhibition at 30 µM (HeLa cells) was 27.9 ± 2.3% and the inhibition at 10 µM (MDA-MB-231 cells) was < 20%. The inhibition at 30 µM (MDA-MB-231 cells) was < 20%, the inhibition at 10 µM (A2780 cells) was < 20% and the inhibition at 30 µM (A2780 cells) was < 20%. The inhibition at 10 µM (NIH/3T3 fibroblasts) was < 20% and the inhibition at 30 µM (NIH/3T3 fibroblasts) was < 20%.
For `COC(=O)[C@]1(C)CCC[C@@]2(C)C3CC[C@]4(O)C[C@@]3(CCC21)[C@@H](O)[C@]41CO1` (stereo partly drawn) [Compound 4b, (2’R,4R,6aR,7R,9S,11bS)-Methyl 7,9-Dihydroxy-4,11b-dimethyldodecahydro-1H-spiro[6a,9-methanocyclohepta[a]naphthalene-8,2’-oxirane]-4-carboxylate], the inhibition at 10 µM (MCF-7 cells) was < 20%, the inhibition at 30 µM (MCF-7 cells) was 53.1 ± 2.2% and the “Antiproliferative activity” value [1] was “significant activity in higher concentrations only”. The melting point was 182 to 185 °C, the inhibition at 10 µM (SiHa cells) was < 20% and the inhibition at 30 µM (SiHa cells) was 58 ± 2.66%. For the same compound, the “Antiproliferative effect on HeLa, in words” value (HeLa cells; 10 and 30 μM) was “potent inhibition”, the inhibition at 10 µM (HeLa cells) was 30.6 ± 1.09% and the inhibition at 30 µM (HeLa cells) was 95.35 ± 0.11%. The inhibition at 10 µM (MDA-MB-231 cells) was < 20%, the inhibition at 30 µM (MDA-MB-231 cells) was 36.7 ± 1.62% and the inhibition at 10 µM (A2780 cells) was < 20%. The inhibition at 30 µM (A2780 cells) was 62 ± 0.78%, the inhibition at 10 µM (NIH/3T3 fibroblasts) was < 20% and the inhibition at 30 µM (NIH/3T3 fibroblasts) was 37.2 ± 0.71%.
For `COC(=O)[C@]1(C)CCC[C@@]2(C)C3CC[C@]4(O)C[C@@]3(CCC21)[C@@H](O)[C@]4(O)CN` (stereo partly drawn) [Compound 17, (4R,6aR,7R,8R,9S,11bS)-Methyl 8-(Aminomethyl)-7,8,9-trihydroxy-4,11b-dimethyltetradecahydro-6a,9-methanocyclohepta[a]naphthalene-4-carboxylate], the inhibition at 10 µM (MCF-7 cells) was < 20%, the inhibition at 30 µM (MCF-7 cells) was < 20% and the “Antiproliferative activity” value [1] was “any notable effect was not detectable”. The melting point was 152 to 155 °C, the “PAMPA-GI MR (membrane retention)” value [2] was 1.5 ± 0.3% and the inhibition at 10 µM (SiHa cells) was < 20%. For the same compound, the inhibition at 30 µM (SiHa cells) was < 20%, the inhibition at 10 µM (HeLa cells) was < 20% and the inhibition at 30 µM (HeLa cells) was 28.9 ± 2.72%. For the same compound, the inhibition at 10 µM (MDA-MB-231 cells) was < 20%, the inhibition at 30 µM (MDA-MB-231 cells) was 30.4 ± 2.04% and the inhibition at 10 µM (A2780 cells) was < 20%. The inhibition at 30 µM (A2780 cells) was < 20%, the inhibition at 10 µM (NIH/3T3 fibroblasts) was < 20% and the inhibition at 30 µM (NIH/3T3 fibroblasts) was < 20%. For the same compound, the solubility kinetic at 2 h [3] was 535 ± 38.4 µM (≈ 204 µg/mL).
